Experiments:
[1] = target: T1, recombinant human transglutaminase 2 (Homo sapiens, UniProt P21980); experiment: Transglutaminase assay (dansylcadaverine incorporation into dimethylcasein, DCC-assay); assay type: biochemical; conditions: recombinant human TG2 10 nM, dansylcadaverine/dimethylcasein, 37° C.
T1 construct: purchased Zedira T022
T1 sequence (P21980 1-687): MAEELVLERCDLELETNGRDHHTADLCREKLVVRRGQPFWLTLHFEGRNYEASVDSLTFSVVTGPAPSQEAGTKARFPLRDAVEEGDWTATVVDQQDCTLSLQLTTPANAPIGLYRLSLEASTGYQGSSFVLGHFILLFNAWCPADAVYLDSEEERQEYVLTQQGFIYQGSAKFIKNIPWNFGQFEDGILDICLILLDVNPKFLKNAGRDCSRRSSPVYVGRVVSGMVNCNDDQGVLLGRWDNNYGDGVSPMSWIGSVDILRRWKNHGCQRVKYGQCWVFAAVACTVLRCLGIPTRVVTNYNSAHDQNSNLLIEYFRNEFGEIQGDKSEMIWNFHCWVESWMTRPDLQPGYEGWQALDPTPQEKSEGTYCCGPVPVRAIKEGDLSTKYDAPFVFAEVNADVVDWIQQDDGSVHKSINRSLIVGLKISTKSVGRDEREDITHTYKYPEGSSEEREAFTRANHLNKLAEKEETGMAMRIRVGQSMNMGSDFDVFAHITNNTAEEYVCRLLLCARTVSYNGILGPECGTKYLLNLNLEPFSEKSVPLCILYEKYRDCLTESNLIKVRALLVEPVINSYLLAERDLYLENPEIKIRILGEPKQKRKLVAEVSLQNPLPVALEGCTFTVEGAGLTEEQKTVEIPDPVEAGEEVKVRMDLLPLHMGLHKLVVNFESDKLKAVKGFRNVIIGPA
Summary of the method: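 IC50 derived from fluorescence slope between 20 and 30 min (λex 330 nm, λem 500 nm, 37 °C), expressed relative to a 2% DMSO control. Reaction: 10 nM recombinant human TG2, 4 μM dimethylcasein, 16.7 μM dansylcadaverine, 10 mM CaCl2 and glutathione, pH 8.0.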

[2] = Caco-2 permeability assay (CacoReady kit); assay type: in vitro ADME; conditions: human
Summary of the method: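 Intestinal permeability modelled with kit-supplied Caco-2 barriers, run as the maker specifies; each compound reported as Papp.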

[3] = Log D shake flask method (octanol / PBS pH 7.4, HPLC); assay type: physicochemical; conditions: octanol/phosphate-buffered saline (PBS); octanol / PBS pH 7.4, shake flask
Method: In order to classify the inventive compounds according to their lipophilicity, Log D values (distribution coefficient) were determined by means of the well-established shake flask method, measuring the partition of a compound between an octanol and phosphate-buffered saline (PBS, pH 7.4) by HPLC.

Row | IC50 [1] [µM] | Papp [2] [×10⁻⁶ cm/s] | logD [3] | SMILES
1 | 0.25 to 1.5 | < 1 | < 1 | CC(=O)/C=C/CC[C@H](NC(=O)c1ncn(C)n1)C(=O)Nc1cccn(CC(=O)NC2C3CCCC2CC3)c1=O (stereo partly drawn) [III-159, N-((2S,E)-1-(1-(2-(bicyclo[3.2.1]octan-8-ylamino)-2-oxoethyl)-2-oxo-1,2-dihydropyridin-3-ylamino)-1,7-dioxooct-5-en-2-yl)-1-methyl-1H-1,2,4-triazole-3-carboxamide]
2 | < 0.025 | < 1 | 3 to 5 | COC(=O)/C=C/CC[C@H](NC(=O)c1cc2ccccc2[nH]1)C(=O)Nc1cccn(CC(=O)NC2C3CC4CC(C3)CC2C4)c1=O (stereo partly drawn) [III-8, (S,E)-methyl 6-(1H-indole-2-carboxamido)-7-(1-(2-(2-adamantylamino)-2-oxoethyl)-2-oxo-1,2-dihydropyridin-3-ylamino)-7-oxohept-2-enoate]
3 | < 0.025 | 1 to 10 | 3 to 5 | COC(=O)/C=C/CC[C@H](NC(=O)c1cc(Cl)sc1Cl)C(=O)Nc1cccn(CC(=O)NC23CC4(C)CC(C)(CC(C)(C4)C2)C3)c1=O [III-94, (S,E)-methyl 6-(2,5-dichlorothiophene-3-carboxamido)-7-(1-(2-(3,5,7-trimethyl-1-adamantylamino)-2-oxoethyl)-2-oxo-1,2-dihydropyridin-3-ylamino)-7-oxohept-2-enoate]
4 | < 0.025 | 1 to 10 | 3 to 5 | COC(=O)/C=C/CC[C@H](NC(=O)c1oc2ccccc2c1C)C(=O)Nc1cccn(CC(=O)NC23CC4CC(CC(Cl)(C4)C2)C3)c1=O [III-52, (S,E)-methyl 7-(1-(2-(3-chloroadamantan-1-amino)-2-oxoethyl)-2-oxo-1,2-dihydropyridin-3-ylamino)-6-(3-methylbenzofuran-2-carboxamido)-7-oxohept-2-enoate]
5 | < 0.025 | < 1 | 1 to 3 | COC(=O)/C=C/CC[C@H](NC(=O)c1snnc1C)C(=O)Nc1cccn(CC(=O)NC2C3CC4CC(C3)CC2C4)c1=O (stereo partly drawn) [III-118, (S,E)-methyl 7-(1-(2-(2-adamantylamino)-2-oxoethyl)-2-oxo-1,2-dihydropyridin-3-ylamino)-6-(4-methyl-1,2,3-thiadiazole-5-carboxamido)-7-oxohept-2-enoate]
6 | 0.025 to 0.25 | < 1 | 1 to 3 | COC(=O)/C=C/CC[C@H](NC(=O)c1cnccn1)C(=O)Nc1cccn(CC(=O)NC2C3CC4CC(C3)CC2C4)c1=O (stereo partly drawn) [III-24, (S,E)-methyl 7-(1-(2-(2-adamantylamino)-2-oxoethyl)-2-oxo-1,2-dihydropyridin-3-ylamino)-7-oxo-6-(pyrazine-2-carboxamido)hept-2-enoate]
7 | 0.025 to 0.25 | < 1 | 3 to 5 | COC(=O)/C=C/CC[C@H](NC(=O)[C@@H]1CCCN1C)C(=O)Nc1cccn(CC(=O)NC2C3CC4CC(C3)CC2C4)c1=O (stereo partly drawn) [III-25, (S,E)-methyl 7-(1-(2-(2-adamantylamino)-2-oxoethyl)-2-oxo-1,2-dihydropyridin-3-ylamino)-6-((S)-1-methylpyrrolidine-2-carboxamido)-7-oxohept-2-enoate]
8 | 0.025 to 0.25 | 1 to 10 | 1 to 3 | COC(=O)/C=C/CC[C@H](NC(=O)c1c(C)noc1C)C(=O)Nc1cccn(CC(=O)NC2C3CCCC2CC3)c1=O (stereo partly drawn) [III-135, (6S,E)-methyl 7-(1-(2-(bicyclo[3.2.1]octan-8-ylamino)-2-oxoethyl)-2-oxo-1,2-dihydropyridin-3-ylamino)-6-(3,5-dimethylisoxazole-4-carboxamido)-7-oxohept-2-enoate]
9 | 0.25 to 1.5 | < 1 | 1 to 3 | COC(=O)/C=C/CC[C@H](NC(=O)C1CCc2ccccc2C1)C(=O)Nc1cccn(CC(=O)NC2C3CC4CC2CC(C(=O)N(C)C)(C4)C3)c1=O (stereo partly drawn) [III-137, (6S,E)-methyl 7-(1-(2-(4-aminoadamantane-N,N-dimethyl-1-carboxamide)-2-oxoethyl)-2-oxo-1,2-dihydropyridin-3-ylamino)-7-oxo-6-(1,2,3,4-tetrahydronaphthalene-2-carboxamido)hept-2-enoate]
10 | 0.25 to 1.5 | < 1 | < 1 | CCN(CC)C(=O)/C=C/CC[C@H](NC(=O)[C@@H]1CN2CCN1CC2)C(=O)Nc1cccn(CC(=O)NC23CC(C2)C3)c1=O [III-139, (S,E)-N7-(1-(2-(bicyclo[1.1.1]pentan-1-ylamino)-2-oxoethyl)-2-oxo-1,2-dihydropyridin-3-yl)-6-((S)-1,4-diazabicyclo[2.2.2]octane-2-carboxamido)-N1,N1-diethylhept-2-enediamide]
11 | < 0.025 | 1 to 10 | 3 to 5 | COC(=O)/C=C/CC[C@H](NC(=O)c1oc2ccccc2c1C)C(=O)Nc1cccn(CC(=O)NC2C3CC4CC(C3)CC2C4)c1=O (stereo partly drawn) [III-2, (S,E)-methyl 7-(1-(2-(2-adamantylamino)-2-oxoethyl)-2-oxo-1,2-dihydropyridin-3-ylamino)-6-(3-methylbenzofuran-2-carboxamido)-7-oxohept-2-enoate]
12 | < 0.025 | 1 to 10 | 3 to 5 | COC(=O)/C=C/CC[C@H](NC(=O)c1oc2ccccc2c1C)C(=O)Nc1cccn(CC(=O)NC2CC3CCC2CC3)c1=O (stereo partly drawn) [III-67, (6S,E)-methyl 7-(1-(2-(bicyclo[2.2.2]octan-2-ylamino)-2-oxoethyl)-2-oxo-1,2-dihydropyridin-3-ylamino)-6-(3-methylbenzofuran-2-carboxamido)-7-oxohept-2-enoate]
13 | 0.025 to 0.25 | 1 to 10 | 3 to 5 | COC(=O)/C=C/CC[C@H](NC(=O)c1oc2ccccc2c1C)C(=O)Nc1cccn(CC(=O)NC[C@@H]2CC[C@H]3C[C@@H]2C3(C)C)c1=O [III-71, (S,E)-methyl 7-(1-(2-(((1S,2R,5S)-6,6-dimethylbicyclo[3.1.1]heptan-2-yl)methylamino)-2-oxoethyl)-2-oxo-1,2-dihydropyridin-3-ylamino)-6-(3-methylbenzofuran-2-carboxamido)-7-oxohept-2-enoate]
14 | < 0.025 | 1 to 10 | 3 to 5 | COC(=O)/C=C/CC[C@H](NC(=O)c1cc2cc(Br)ccc2s1)C(=O)Nc1cccn(CC(=O)NC2C3CC4CC(C3)CC2C4)c1=O (stereo partly drawn) [III-6, (S,E)-methyl 6-(5-bromobenzo[b]thiophene-2-carboxamido)-7-(1-(2-(2-adamantylamino)-2-oxoethyl)-2-oxo-1,2-dihydropyridin-3-ylamino)-7-oxohept-2-enoate]
15 | 0.025 to 0.25 | < 1 | < 1 | COC(=O)/C=C/CC[C@H](NC(=O)c1csnn1)C(=O)Nc1cccn(CC(=O)NC23CC(C2)C3)c1=O [III-169, (S,E)-methyl 7-(1-(2-(bicyclo[1.1.1]pentan-1-ylamino)-2-oxoethyl)-2-oxo-1,2-dihydropyridin-3-ylamino)-7-oxo-6-(1,2,3-thiadiazole-4-carboxamido)hept-2-enoate]
16 | < 0.025 | < 1 | 3 to 5 | COC(=O)/C=C/CC[C@H](NC(=O)c1cncc(C(=O)O)c1)C(=O)Nc1cccn(CC(=O)NC2C3CC4CC(C3)CC2C4)c1=O (stereo partly drawn) [III-35, (S,E)-5-(1-(1-(2-(2-adamantylamino)-2-oxoethyl)-2-oxo-1,2-dihydropyridin-3-ylamino)-7-methoxy-1,7-dioxohept-5-en-2-ylcarbamoyl)nicotinic acid]
17 | < 0.025 | < 1 | 1 to 3 | COC(=O)/C=C/CC[C@H](NC(=O)c1ccnnc1)C(=O)Nc1cccn(CC(=O)NC2C3CC4CC(C3)CC2C4)c1=O (stereo partly drawn) [III-85, (S,E)-methyl 7-(1-(2-(2-adamantylamino)-2-oxoethyl)-2-oxo-1,2-dihydropyridin-3-ylamino)-7-oxo-6-(pyridazine-4-carboxamido)hept-2-enoate]
18 | < 0.025 | 1 to 10 | 1 to 3 | COC(=O)/C=C/CC[C@H](NC(=O)c1oc2ccccc2c1C)C(=O)Nc1cccn(CC(=O)NC23CCC(CC2)C3)c1=O [III-64, (S,E)-methyl 7-(1-(2-(bicyclo[2.2.1]heptan-1-ylamino)-2-oxoethyl)-2-oxo-1,2-dihydropyridin-3-ylamino)-6-(3-methylbenzofuran-2-carboxamido)-7-oxohept-2-enoate]

From patent publication US20240317708A1, “INHIBITORS OF TRANSGLUTAMINASES” (ZEDIRA GMBH, priority 2021, published 2024)
